Results from BindingDB's records for doi:10.1021/jm991049m (University of Camerino, 1999).

Experiments:
[1] = Predicted affinity for imidazoline receptor I2 by three field CoMFA model
[2] = as above; remark: listed apart in the source
[3] = as above; remark: listed apart in the source

Work on `c1ccc([C@H]2C[C@@H]2C2=NCCN2)cc1` yielded a Ki [1] of 251 nM.

Compound `c1ccc([C@H]2C[C@H]2C2=NCCN2)cc1` has a Ki [2] of 724 nM.

For `c1ccc([C@@H]2C[C@H]2C2=NCCN2)cc1`, the Ki [3] was 23 nM.

For `c1ccc([C@@H]2C[C@@H]2C2=NCCN2)cc1`, the Ki [2] was 331 nM.
